Experiments:
[1] = tested on: Ku70; test: Ku70 immunoprecipitation with pan-acetyl / Ku70 immunoblot in IPF-lung myofibroblasts; assay type: cell-based, human; conditions: CMH 30 μM, 72 h
Protocol: Human lung myofibroblasts Differentiated fibroblasts from IPF-lungs and controls from patient lung biopsies performed for tumor diagnosis were obtained under a protocol detailed in Wallach-Dayan et al., J. Autoimmun. 59: 67-76, 2015. LL 97A (AlMy) (ATCC® CCL-191™)-IPF-lung, and LL 24 (ATCC® CCL-151™)-normal lung fibroblast cell lines were used.
Immunoprecipitation and immunoblotting Standard protocols were performed as described in Golan-Gerstl et al., Am. J. Respir. Cell Mol. Biol. 47: 271-279, 2012.
FLIP downregulation from an OD of 1.85 to 0.49 (about 3.5-fold) was detected in WB (FIG. 4F), and a […] from a mean fluorescence intensity (MFI)=10^3 to only 10^1 was detected with flow cytometry (FIG. 4G). Thus, SIRT1-mediated Ku70-deacetylation stabilizes IPF-lung myofibroblast FLIP via Ku70/FLIP complex. This effect of CMH on Ku70 further disrupts Ku70/FLIP complex and destabilizes FLIP in IPF-lung myofibroblasts.
IPF cell line ATCC-191 (0.5×10^6), were exposed in culture (10% DMEM) to a compound of Formula 6 (1 or 3 μM) vs. 4% DMSO (vehicle) for 16 h. Ku70 immunoprecipitation with subsequent pan-acetyl (FIG. 8A) and immunoblots of Ku70 with anti-Ku70 mAb (FIG. 8B) or FLIP with anti-FLIP mAb (FIG. 8C) were measured. […] IPF-lung myofibroblasts decreased FLIP expression from an OD of 1.00 to 0.51 (about twofold, FIG. 8C).

[2] = tested on: breast cancer cells and pancreatic cancer cells; conditions: cited from earlier work
[3] = target: T1, HDAC10 (Homo sapiens, UniProt Q969S8); conditions: prostate cancer cells; cited from earlier work
T1 sequence (Q969S8 1-669): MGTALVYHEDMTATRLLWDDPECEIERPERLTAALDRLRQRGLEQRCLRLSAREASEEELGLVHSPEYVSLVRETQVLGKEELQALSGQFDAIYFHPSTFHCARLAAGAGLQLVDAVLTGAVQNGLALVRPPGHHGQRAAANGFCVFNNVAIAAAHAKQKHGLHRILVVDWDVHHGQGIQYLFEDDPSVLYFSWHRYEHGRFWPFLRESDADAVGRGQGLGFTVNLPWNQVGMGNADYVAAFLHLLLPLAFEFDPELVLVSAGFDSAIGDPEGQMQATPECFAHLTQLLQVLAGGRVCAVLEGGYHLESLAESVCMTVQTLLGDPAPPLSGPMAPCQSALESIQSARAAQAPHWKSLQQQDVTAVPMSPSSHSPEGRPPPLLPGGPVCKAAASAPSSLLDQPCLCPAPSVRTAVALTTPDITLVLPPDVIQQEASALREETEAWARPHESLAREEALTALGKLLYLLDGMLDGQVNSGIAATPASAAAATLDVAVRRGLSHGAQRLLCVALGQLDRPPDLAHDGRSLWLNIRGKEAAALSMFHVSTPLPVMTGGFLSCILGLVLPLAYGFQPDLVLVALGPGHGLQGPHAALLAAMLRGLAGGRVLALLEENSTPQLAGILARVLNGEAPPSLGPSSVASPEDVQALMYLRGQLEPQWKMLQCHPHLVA

[4] = tested on: BLM-treated C57BL/6 WT mice; test: Bleomycin-induced lung fibrosis in mice, CMH by oropharyngeal aspiration; assay type: in vivo, mouse
Text: Animals C57BL/6 and mutant mice, male, 11-12 weeks old (Harlan Sprague Dawley, Indianapolis, IN, USA) were used. SIRT1 dominant-negative mice carry a point mutation (H355Y), Sirt1^tm2.1Mcby (Sirt1^y/y, RBRC05324, RIKEN Bio Resource Center, Japan) that ablates SIRT1 enzymatic activity, described in Gabay et al., Arthritis Rheum. 65: 159-166, 2013; and Seifert et al., FASEB J. 26: 555-566, 2012. Mice were maintained under specific pathogen-free conditions with adherence to institutional guidelines for the care and use of laboratory animals. Chimeric mice with SIRT1-deficient mice and WT hematopoietic cells were generated as described in Golan-Gerstl et al., Am. J. Respir Cell Mol. Biol. 36: 270-275, 2007.
Oropharyngeal aspiration (OA) and induction of lung fibrosis in mice Oropharyngeal aspiration of BLM (OA-BLM) was performed as detailed in Golan-Gerstl et al., Am. J. Respir. Cell Mol. Biol. 36: 270-275, 2007. Lung fibrosis was assessed via semi-quantitative morphological index (Wallach-Dayan et al., PNAS USA 104: 20460-20465, 2007). Lung collagen was measured using a Sircol Collagen Assay kit (Biocolor, Belfast, Northern Ireland), and standard protocol of trichrome staining. Isolation of mouse lung myofibroblasts Myofibroblast isolation and culture was performed as described in Golan-Gerstl et al., Am. J. Respir. Cell Mol. Biol. 36: 270-275, 2007; and Wallach-Dayan et al., PNAS USA 104: 20460-20465, 2007.
Immunohistochemistry (IHC) staining of lung tissue sections was performed as described in Golan-Gerstl et al., Am. J. Respir Cell Mol. Biol. 36: 270-275, 2007; and Wallach-Dayan et al., PNAS USA 104: 20460-20465, 2007.
CMH (30 μM) or control vehicle 4% DMSO were administered into WT mice by a second OA on day 6 of OA-BLM (0.05 mU), or control-saline (FIG. 6A). Similar to SIRT1^y/y mice, BLM-treated mice and control saline-treated mice (FIG. 6B) that were exposed to CMH vs. vehicle alone, had low SIRT1 and FLIP expression in lung sections. Myofibroblasts isolated from lungs of BLM-treated mice had decreased Ku70 binding to SIRT1 from 1.2 to 0.6 (FIG. 6C), increased Ku70 acetylation from an OD of 0.1 to 0.91 (FIG. 6D), and decreased Ku70/FLIP complex from an OD of 2.43 to 1.55 (FIG. 6E). Compared to vehicle, CMH-treated mice reduced H&E and collagen-trichrome staining (FIG. 6F, upper and lower panels, respectively), SMI grade (average SMI from 2 to 1.1, FIG. 6G), and collagen in Sircol assay (from 200 μg to only 50 μg, FIG. 6H). Thus, In vivo inhibition of SIRT1 activity, FLIP expression, and lung fibrosis were detected in CMH-BLM-treated mice and attenuation of deacetylation activity on Ku70, a decrease in Ku70/FLIP complex, and FLIP expression levels were detected in myofibroblasts isolated from lungs of CMH-BLM-treated mice. SIRT1-mediated Ku70-deacetylation may therefore stabilize FLIP via Ku70/FLIP complex in lung myofibroblasts promoting fibrosis, which can be inhibited by CMH.

[5] = CMH 30 μM by OA on day 6 of OA-BLM, vs. vehicle

## Cc1cc(Cl)ccc1OCCCC(=O)NO [CMH, 4-(4-chloro-2-methylphenoxy)-N-hydroxybutanamide]
[1]
  Increase of Ku70 acetylation: about twofold
[1]; from 2.43 before
  Ku70 acetylation, optical density ratio (OD) in pan-acetyl IB of Ku70 IP: 5.6 OD
[2]
  Apoptosis: increase
  FLIP expression: downregulate
[3]
  Inhibition of HDAC10: not inhibited
[4]; CMH 30 μM OA day 6, day 14 post BLM, compared to vehicle
  H&E and collagen-trichrome staining of lung tissue sections: reduced
[4]; CMH 30 μM OA day 6, day 14 post BLM, vehicle 200 μg
  Collagen in Sircol assay: 50 µg
[4]; CMH 30 μM OA day 6, day 14 post BLM, vehicle 2
  Average SMI grade (semi-quantitative morphological index): 1.1
[4]; [5]
  FLIP expression in lung sections (IHC): low
  SIRT1 expression in lung sections (IHC): low
